{
  "source": "patent US8252781B2",
  "about": "“1,2-diazetidin-3-one derivatives and drugs containing same” (Kowa Company, Ltd., priority 2008, dated 2012)",
  "format_in_all_cases": "biochemical",
  "key": {"[1]": {"biological_target": "T1, human 11β-HSD1 (Homo sapiens, UniProt P28845)", "T1 construct": "The obtained PCR products of about 0.9 kbp, 1.2 kbp, and 0.9 kbp were subcloned into an expression vector pcDNA3.1+/Zeo; expressed in transfected cells", "T1 sequence (P28845 whole entry)": "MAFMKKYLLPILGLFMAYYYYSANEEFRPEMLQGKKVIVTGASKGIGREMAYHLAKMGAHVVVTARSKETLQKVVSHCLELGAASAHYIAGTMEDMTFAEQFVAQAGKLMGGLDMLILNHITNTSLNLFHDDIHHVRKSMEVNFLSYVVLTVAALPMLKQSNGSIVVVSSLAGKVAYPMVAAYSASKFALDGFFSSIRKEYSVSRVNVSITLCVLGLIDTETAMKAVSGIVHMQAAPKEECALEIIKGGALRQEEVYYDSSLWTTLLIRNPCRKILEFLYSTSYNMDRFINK", "experiment": "Enzyme inhibitory activity, human 11β-HSD1 (lysate of stably expressing HEK293 cells, cortisol by competitive ELISA)", "conditions": "Table 1; human 11β-HSD1, cell lysate, 37° C. for 1 hour; read-out: h HSD1 in vitro assay (IC50 uM)", "in_short": "(§1)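 Sonicated lysates of stably transfected cells (diluted to 0.1–0.4 mg/mL before addition) reacted for 1 h at 37 °C in pH 7.4 Tris/sucrose/EGTA/EDTA/MgCl2 buffer with 100 nmol/L cortisone or cortisol and 400 μmol/L NADPH or NAD+, then were heat-stopped at 95 °C. Inhibition rate = 100 minus residual activity.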"}, "[2]": {"biological_target": "T2, human 11β-HSD2 (Homo sapiens, UniProt P80365)", "T2 construct": "The obtained PCR products of about 0.9 kbp, 1.2 kbp, and 0.9 kbp were subcloned into an expression vector pcDNA3.1+/Zeo; expressed in transfected cells", "T2 sequence (P80365 1-405)": "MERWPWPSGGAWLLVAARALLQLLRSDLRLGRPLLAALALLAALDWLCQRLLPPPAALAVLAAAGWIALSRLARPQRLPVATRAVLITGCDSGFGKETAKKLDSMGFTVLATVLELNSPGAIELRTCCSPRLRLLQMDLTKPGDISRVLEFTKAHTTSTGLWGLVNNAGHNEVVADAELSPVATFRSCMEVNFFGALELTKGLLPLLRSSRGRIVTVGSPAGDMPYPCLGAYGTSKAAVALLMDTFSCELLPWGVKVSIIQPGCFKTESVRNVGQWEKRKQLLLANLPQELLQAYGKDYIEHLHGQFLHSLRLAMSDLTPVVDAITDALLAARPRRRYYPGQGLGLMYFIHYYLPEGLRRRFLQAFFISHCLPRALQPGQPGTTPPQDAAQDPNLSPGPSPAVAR", "experiment": "Enzyme inhibitory activity, human 11β-HSD2 (lysate of stably expressing HEK293 cells, cortisol by competitive ELISA)", "conditions": "Table 1; human 11β-HSD2, cell lysate, 37° C. for 1 hour; read-out: h HSD2 in vitro assay (IC50 uM)", "experimental": "1. Human 11β-HSD1-, Human 11β-HSD2- and Mouse 11β-HSD1-Gene Clonings and Establishment of Stably Expressing Cells\nHuman 11β-HSD1-, human 11β-HSD2-, and mouse 11β-HSD1-gene clonings were conducted using as a template a reverse transcription product of human-liver RNA, human-kidney RNA (CELL APPLICATIONS), and mouse-kidney RNA respectively, by means of PCR cloning with reference to nucleotide sequences of Genbank Accession Nos. NM_005525, NM_000196, and NM_008288. The obtained PCR products of about 0.9 kbp, 1.2 kbp, and 0.9 kbp were subcloned into an expression vector pcDNA3.1+/Zeo (Invitrogen).\nHuman 11β-HSD1- and human 11β-HSD2-expressing vectors were transfected into human kidney-derived cell line, HEK293 cells, using a transfection reagent, jet PEI (Funakoshi). Mouse 11β-HSD1 was transfected to Chinese hamster ovary-derived cell line, CHO-K1 cells. Selection was conducted with 200-400 μg/mL of zeocine (Invitrogen) to provide stably expressing-cell clones. The stably expressing cells were suspended in buffer solution A (20 mmol/L Tris-HCl, pH 7.4, 250 mmol/L sucrose, 1 mmol/L EGTA, 1 mmol/L EDTA, 1 mmol/L MgCl2), sonicated, and then stored at −80° C.\n2. Assay of Enzyme Inhibitory Activity\nAn enzymatic reaction was conducted using a polystyrene 96-well plate. Each well was added with 1 μL of a test agent dissolved in DMSO and then diluted (0.003 to 3 mmol/L), and further added with 10 μL of cell lysate diluted to a concentration of 0.1 mg/mL to 0.4 mg/mL. Next, 90 μL of buffer solution A containing substrate (100 nmol/L cortisone or cortisol) and coenzyme (400 μmol/L NADPH or NAD+) was added and the mixture was incubated at 37° C. for 1 hour. The enzymatic reaction was stopped by treating at 95° C. for 3 minutes. Cortisol that was present in the reaction solution was determined by a competitive ELISA shown below.\nAnti-rabbit IgG antibody (Chemi-con) diluted to 2 μg/mL with carbonate buffer solution (pH 9.6) was added in 100 μL each to a 96-well immuno plate (Nunc) and immobilized by an incubation at 4° C. overnight. 50 μL of enzymatic reaction solution was put onto the plates, and further, anti-cortisol antibody (Cosmo Bio) and HRP-labeled cortisol (Cosmo Bio), diluted with buffer solution B (25 mmol/L Tris-HCl pH 7.4, 137 mmol/L NaCl, 2.68 mmol/L KCl), were added in 50 μL respectively and incubated at 4° C. overnight. After washed three times with buffer solution B containing 0.05% Tween 20, the plates were allowed to develop color by adding 100 μL of color reagent, TMB (Moss). The color reaction was stopped by 25 μL of 1 mol/L sulfuric acid and the absorbance was determined at 450 nm with a microplate reader (Molecular Device, VersaMax).\nThe values of human 11β-HSD1, human 11β-HSD2, and mouse 11β-HSD1 activities were subtracted from 100, and the resultant values were regarded as the respective 11β-HSD inhibition rates of example compounds. […] The comparison of human 11β-HSD1 and human 11β-HSD2 inhibiting activities is shown in Table 1, and the comparison of human 11β-HSD1 and mouse 11β-HSD1 inhibiting activities is shown in Table 2."}, "[3]": {"biological_target": "T3, mouse 11β-HSD1 (Mus musculus, UniProt P50172)", "T3 construct": "The obtained PCR products of about 0.9 kbp, 1.2 kbp, and 0.9 kbp were subcloned into an expression vector pcDNA3.1+/Zeo; expressed in transfected cells", "T3 sequence (P50172 whole entry)": "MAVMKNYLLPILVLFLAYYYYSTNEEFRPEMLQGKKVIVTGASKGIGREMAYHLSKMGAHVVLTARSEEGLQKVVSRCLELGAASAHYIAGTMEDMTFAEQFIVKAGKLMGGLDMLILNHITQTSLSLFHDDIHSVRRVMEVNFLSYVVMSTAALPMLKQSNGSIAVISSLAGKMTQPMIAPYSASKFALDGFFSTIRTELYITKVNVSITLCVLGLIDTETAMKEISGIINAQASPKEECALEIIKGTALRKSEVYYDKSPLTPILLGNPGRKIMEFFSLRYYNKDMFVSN", "experiment": "Enzyme inhibitory activity, mouse 11β-HSD1 (lysate of stably expressing CHO-K1 cells, cortisol by competitive ELISA)", "conditions": "Table 2; mouse 11β-HSD1, cell lysate, 37° C. for 1 hour; read-out: m HSD1 in vitro assay (IC50 uM)", "in_short": "as §1"}},
  "data": [
    {"compound": "CC1(C)C(=O)N([C@H]2C3CC4CC2C[C@@](C(=O)O)(C4)C3)N1c1cccc2ccccc12", "note": "[Example 272, cis-4-[2-(naphthalen-1-yl)-3,3-dimethyl-4-oxo-1,2-diazetidin-1-yl]adamantane-1-carboxylic acid]", "values": [
      {"measurement": "IC50", "setting": "[1]", "value": 0.05, "unit": "µM"},
      {"measurement": "IC50", "setting": "[2]", "value": "> 30", "unit": "µM"},
      {"measurement": "IC50", "setting": "[3]", "value": 0.9, "unit": "µM"}
    ]}
  ]
}
